Assays:
[1] = tested on: granulation tissue formation caused by implantation of cotton pellets; assay: Granuloma formation test (local cotton pellet granuloma assay); type: in vivo, rat; conditions: Table V-b
Experimental: The test compound was dissolved in acetone and aliquots of varying concentrations were injected into cotton pellets. The pellets were dried and then one pellet was implanted beneath the skin of each test rat. Six days later, the animals were sacrificed and the granulation tissue (granuloma) which formed in and around the implanted pellet was removed, dried and weighed. In addition, the thymi and adrenals were removed and weighed.

thymus weight in rats = assay: Thymus inhibition testing (subcutaneous administration); type: in vivo, rat; conditions: Table VIII, 10 mg/kg/day s.c., three days
Experimental: Several further studies were undertaken to determine the effects of selected compounds of the invention on thymi weights in rats when the drugs were systemically administered. In each of these studies, male Sprague-Dawley rats were used. […] On the fifth day (48 hours following the last treatment), the animals were sacrificed and the thymi weights were recorded. […] It is evident that the higher the inhibition of thymus activity at a given dose, the more toxic the compound is.

Row | SMILES | Body wt. gain ([1]; 1 μg/pellet) [g] | Dry granulation Tissue ([1]; 1 μg/pellet) [mg] | Dry granulation Tissue Inhibition ([1]; 1 μg/pellet) [%] | Thymus wt. ([1]; 1 μg/pellet) [mg] | Body wt. gain ([1]; 3 μg/pellet) [g] | Dry granulation Tissue ([1]; 3 μg/pellet) [mg] | Dry granulation Tissue Inhibition ([1]; 3 μg/pellet) [%] | Thymus wt. ([1]; 3 μg/pellet) [mg] | Body wt. gain ([1]; 10 μg/pellet) [g] | Dry granulation Tissue ([1]; 10 μg/pellet) [mg] | Dry granulation Tissue Inhibition ([1]; 10 μg/pellet) [%] | Thymus wt. ([1]; 10 μg/pellet) [mg] | Body wt. gain ([1]; 30 μg/pellet) [g] | Dry granulation Tissue ([1]; 30 μg/pellet) [mg] | Dry granulation Tissue Inhibition ([1]; 30 μg/pellet) [%] | Thymus wt. ([1]; 30 μg/pellet) [mg] | Body weight gain (thymus weight in rats) [g] | Thymus wt. (thymus weight in rats) [mg] | Thymus wt. Inhibition (thymus weight in rats) [%]
1 | CCOC(=O)O[C@]1(C(=O)OCCl)[C@H](C)C[C@H]2[C@@H]3CCC4=CC(=O)C=C[C@]4(C)[C@@]3(F)C(=O)C[C@@]21C [chloromethyl 17α-ethoxycarbonyloxy-9α-fluoro-16α-methylandrosta-1,4-dien-3,11-dione-17β-carboxylate] | 23.7 ± 1.5 | 55.3 ± 2.6 | 17.7 | 459 ± 41 | 25.6 ± 1.2 | 51.6 ± 5.9 | 23.2 | 467 ± 21 | 26.5 ± 2.5 | 41.5 ± 4.7 | 38.2 | 544 ± 31 | 20.3 ± 0.9 | 39.9 ± 3.6 | 40.6 | 463 ± 24 |  |  | 
2 | CC(C)OC(=O)O[C@]1(C(=O)OCCl)[C@H](C)C[C@H]2[C@@H]3CCC4=CC(=O)C=C[C@]4(C)[C@@]3(F)[C@@H](O)C[C@@]21C [chloromethyl 9α-fluoro-11β-hydroxy-17α-isopropoxycarbonyloxy-16α-methylandrosta-1,4-dien-3-one-17β-carboxylate] |  |  |  |  |  |  |  |  |  |  |  |  |  |  |  |  | 2.7 ± 1.9 | 234 ± 31 | 57.5
3 | CC(C)OC(=O)O[C@]1(C(=O)OCCl)[C@@H](C)C[C@H]2[C@@H]3CCC4=CC(=O)C=C[C@]4(C)[C@@]3(F)C(=O)C[C@@]21C [chloromethyl 9α-fluoro-17α-isopropoxycarbonyloxy-16β-methylandrosta-1,4-dien-3,11-dione-17β-carboxylate] | 28.9 ± 1.1 | 59.1 ± 5.8 | 12.1 | 441 ± 24 | 25.8 ± 0.9 | 49.4 ± 3.7 | 26.5 | 519 ± 31 | 28.4 ± 0.8 | 51.1 ± 5.8 | 24.0 | 547 ± 35 | 27.4 ± 0.9 | 40.6 ± 3.6 | 39.6 | 536 ± 24 |  |  | 

Reference: patent US6610675B1 (priority 1980, dated 2003)
